Assay results taken from patent US9334257B2, “Methods of purifying and identifying the presence of and levels of procyanidin oligomeric compounds” (The Hershey Company, priority 2012, dated 2016).

Experiment: Partition coefficient of cocoa procyanidin oligomers in the CPC biphasic solvent system
Type: physicochemical
Settings: typical CPC runs as described; biphasic ethyl acetate:ethanol:water (6:1:5), ascending mode; unfermented cocoa bean sample of 8.5 grams
Description: A sample is mixed with water and prepared for FCPC with a KROMATON device and rotor. Columns are prepared with biphasic solvent mixture of ethyl acetate:ethanol:water at 6:1:5 ratio. The solvent used can be modified from this ratio by calculating the partition coefficients and comparing to that of the ethyl acetate:ethanol:water example. The FCPC is run in ascending mode for purifying procyanidins, so that the mobile phase is the upper phase in the resting columns.
These quantities are isolated from an unfermented cocoa bean sample of 8.5 grams. In comparison, with a diol HPLC column, 150×30 mm, injecting about 270 mg of the same sample per run yields only about 25 mg of DP2-4 and less than 1 mg of DP11-12. Clearly, the CPC methods of the invention provide commercially viable methods for producing usable quantities of a range of procyanidin oligomers, especially from cocoa sources.

| Partition coefficient | SMILES |
| --- | --- |
| 0.84 | Oc1cc(O)c2c(c1)O[C@H](c1ccc(O)c(O)c1)[C@H](O)C2 [epicatechin] |
| 0.63 | Oc1cc(O)c2c(c1)O[C@H](c1ccc(O)c(O)c1)[C@H](O)[C@H]2c1c(O)cc(O)c2c1O[C@H](c1ccc(O)c(O)c1)[C@H](O)C2 [procyanidin B2] |
| 0.94 | Oc1cc(O)c2c(c1)O[C@H](c1ccc(O)c(O)c1)[C@H](O)[C@H]2c1c(O)cc2c(c1O)C[C@@H](O)[C@@H](c1ccc(O)c(O)c1)O2 [procyanidin B5] |
